According to patent US6552068B1, “3-ethyl-, 3-propyl- or 3-butyl-chroman and thiochroman derivatives” (Chugai Seiyaku Kabushiki Kaisha, priority 1999, dated 2003):

What follows are compounds tested on ovariectomized mice administered with 17β-estradiol (increase in uterine weight) (assay: Anti-estrogenic activity (oral administration): inhibition of estradiol-induced increase in uterine weight). Details: 10 mg/kg p.o. once a day for 3 days, suspended in 5% arabic gum; ovariectomized ICR mice given 17β-estradiolbenzoate 0.1 μg/mouse s.c. for 3 days; uteri weighed 24 hours after last administration.
Format: in vivo
Description: Test compounds were assayed for their oral anti-estrogenic activity in the following manner. In this experiment, the compounds prepared in Examples mentioned above were used as test compounds. As control compounds, the following two were used: a compound described in Example 7 of WO98/25916 and a compound corresponding to general formula (1) of the present invention, provided that R1 was a methyl group, i.e., 10-[(3RS,4RS)-7-hydroxy-3-(4-hydroxyphenyl)-3-methylthiochroman-4-yl]-2-(4,4,5,5,5-pentafluoropentyl)decanoic acid, which had been synthesized according to Reaction Schemes 1 to 7 mentioned above.
In this experiment, each of the test and control compounds was suspended in 5% arabic gum solution and orally administered for 3 days on a once-a-day basis. After 24 hours from the last administration, the test animals were sacrificed and the uteri were removed and weighed.

Compound | Inhibition (%) of the increase in uterine weight
CCC[C@@]1(c2ccc(O)cc2)CSc2cc(O)ccc2[C@@H]1CCCCCCCCCC(CCCC(F)(F)C(F)(F)F)C(=O)O (mixture of isomers) [Example 38, 11-[(3RS,4RS)-7-hydroxy-3-(4-hydroxyphenyl)-3-propylthiochroman-4-yl]-2-(4,4,5,5,5,-pentafluoropentyl)undecanoic acid] | 84%

Same assay, conditions: po; 10 mg/kg p.o. once a day for 3 days, suspended in 5% arabic gum; ovariectomized ICR mice given 17β-estradiolbenzoate 0.1 μg/mouse s.c. for 3 days; uteri weighed 24 hours after last administration

Compound | inhibition in vivo at 10 mg/kg
C[C@@]1(c2ccc(O)cc2)CSc2cc(O)ccc2[C@@H]1CCCCCCCCC(CCCC(F)(F)C(F)(F)F)C(=O)O (mixture of isomers) [10-[(3RS,4RS)-7-hydroxy-3-(4-hydroxyphenyl)-3-methylthiochroman-4-yl]-2-(4,4,5,5,5-pentafluoropentyl)decanoic acid, reference compound] | 75%
CC[C@]1(c2ccc(O)cc2)CSc2cc(O)ccc2[C@H]1CCCCCCCCC(CCCCCC(F)(F)C(F)(F)F)C(=O)O (mixture of isomers) [Example 14, 10-[(3RS,4RS)-3-ethyl-7-hydroxy-3-(4-hydroxyphenyl)thiochroman-4-yl]-2-(6,6,7,7,7-pentafluoroheptyl)decanoic acid] | 81%
CC[C@]1(c2ccc(O)cc2)CSc2cc(O)ccc2[C@H]1CCCCCCCCC(CCCCC(F)(F)C(F)(F)F)C(=O)O (mixture of isomers) [Example 15, 10-[(3RS,4RS)-3-ethyl-7-hydroxy-3-(4-hydroxyphenyl)thiochroman-4-yl]-2-(5,5,6,6,6-pentafluorohexyl)decanoic acid] | 92%
CC[C@]1(c2ccc(O)cc2)CSc2cc(O)ccc2[C@H]1CCCCCCCCC(CCCC(F)(F)C(F)(F)F)C(=O)O (mixture of isomers) [Example 16, 10-[(3RS,4RS)-3-ethyl-7-hydroxy-3-(4-hydroxyphenyl)thiochroman-4-yl]-2-(4,4,5,5,5-pentafluoropentyl)decanoic acid] | 96%
CC[C@]1(c2ccc(O)cc2)CSc2cc(O)ccc2[C@H]1CCCCCCCCCC(CCCC(F)(F)C(F)(F)F)C(=O)O (mixture of isomers) [Example 20, 11-[(3RS,4RS)-3-ethyl-7-hydroxy-3-(4-hydroxyphenyl)thiochroman-4-yl]-2-(4,4,5,5,5-pentafluoropentyl)undecanoic acid] | 91%
CC[C@@]1(c2ccc(O)cc2)COc2cc(O)ccc2[C@@H]1CCCCCCCCCC(CCCCCC(F)(F)C(F)(F)F)C(=O)O (mixture of isomers) [Example 22, 11-[(3RS,4RS)-3-ethyl-7-hydroxy-3-(4-hydroxyphenyl)chroman-4-yl]-2-(6,6,7,7,7-pentafluoroheptyl)undecanoic acid] | 83%
CCC[C@@]1(c2ccc(O)cc2)CSc2cc(O)ccc2[C@@H]1CCCCCCCCC(CCCC(F)(F)C(F)(F)F)C(=O)O (mixture of isomers) [Example 29, 10-[(3RS,4RS)-7-hydroxy-3-(4-hydroxyphenyl)-3-propylthiochroman-4-yl]-2-(4,4,5,5,5-pentafluoropentyl)decanoic acid] | 91%
CC[C@@]1(c2ccc(O)cc2)CSc2cc(O)ccc2[C@@H]1CCCCCCCCCC(CCC(F)(F)C(F)(F)C(F)(F)C(F)(F)F)C(=O)O (mixture of isomers) [Example 30, 11-[(3RS,4RS)-3-ethyl-7-hydroxy-3-(4-hydroxyphenyl)thiochroman-4-yl]-2-(3,3,4,4,5,5,6,6,6-nonafluorohexyl)undecanoic acid] | 89%
CC[C@@]1(c2ccc(O)cc2)CSc2cc(O)ccc2[C@@H]1CCCCCCCCC(CCC(F)(F)C(F)(F)C(F)(F)C(F)(F)F)C(=O)O (mixture of isomers) [Example 31, 10-[(3RS,4RS)-3-ethyl-7-hydroxy-3-(4-hydroxyphenyl)thiochroman-4-yl]-2-(3,3,4,4,5,5,6,6,6-nonafluorohexyl)decanoic acid] | 85%
CC[C@@]1(c2ccc(O)cc2)COc2cc(O)ccc2[C@@H]1CCCCCCCCCC(CCC(F)(F)C(F)(F)C(F)(F)C(F)(F)F)C(=O)O (mixture of isomers) [Example 32, 11-[(3RS,4RS)-3-ethyl-7-hydroxy-3-(4-hydroxyphenyl)chroman-4-yl]-2-(3,3,4,4,5,5,6,6,6-nonafluorohexyl)undecanoic acid] | 82%
CC[C@@]1(c2ccc(O)cc2)COc2cc(O)ccc2[C@@H]1CCCCCCCCC(CCCC(F)(F)C(F)(F)C(F)(F)C(F)(F)F)C(=O)O (mixture of isomers) [Example 34, 10-[(3RS,4RS)-3-ethyl-7-hydroxy-3-(4-hydroxyphenyl)chroman-4-yl]-2-(4,4,5,5,6,6,7,7,7-nonafluoroheptyl)decanoic acid] | 90%
CC[C@@]1(c2ccc(O)cc2)COc2cc(O)ccc2[C@@H]1CCCCCCCCCC(CCCC(F)(F)C(F)(F)C(F)(F)C(F)(F)F)C(=O)O (mixture of isomers) [Example 35, 11-[(3RS,4RS)-3-ethyl-7-hydroxy-3-(4-hydroxyphenyl)chroman-4-yl]-2-(4,4,5,5,6,6,7,7,7-nonafluoroheptyl)undecanoic acid] | 93%
CCC[C@@]1(c2ccc(O)cc2)CSc2cc(O)ccc2[C@@H]1CCCCCCCCC(CCCCC(F)(F)C(F)(F)F)C(=O)O (mixture of isomers) [Example 36, 10-[(3RS,4RS)-7-hydroxy-3-(4-hydroxyphenyl)-3-propylthiochroman-4-yl]-2-(5,5,6,6,6-pentafluorohexyl)decanoic acid] | 89%
CCC[C@@]1(c2ccc(O)cc2)CSc2cc(O)ccc2[C@@H]1CCCCCCCCCC(CCC(F)(F)C(F)(F)C(F)(F)C(F)(F)F)C(=O)O (mixture of isomers) [Example 39, 11-[(3RS,4RS)-7-hydroxy-3-(4-hydroxyphenyl)-3-propylthiochroman-4-yl]-2-(3,3,4,4,5,5,6,6,6-nonafluorohexyl)undecanoic acid] | 84%
CCC[C@@]1(c2ccc(O)cc2)COc2cc(O)ccc2[C@@H]1CCCCCCCCC(CCCCC(F)(F)C(F)(F)F)C(=O)O (mixture of isomers) [Example 40, 10-[(3RS,4RS)-7-hydroxy-3-(4-hydroxyphenyl)-3-propylchroman-4-yl]-2-(5,5,6,6,6-pentafluorohexyl)decanoic acid] | 82%
CCC[C@@]1(c2ccc(O)cc2)COc2cc(O)ccc2[C@@H]1CCCCCCCCC(CCC(F)(F)C(F)(F)C(F)(F)C(F)(F)F)C(=O)O (mixture of isomers) [Example 41, 10-[(3RS,4RS)-7-hydroxy-3-(4-hydroxyphenyl)-3-propylchroman-4-yl]-2-(3,3,4,4,5,5,6,6,6-nonafluorohexyl)decanoic acid] | 89%
CCC[C@@]1(c2ccc(O)cc2)COc2cc(O)ccc2[C@@H]1CCCCCCCCC(CCCC(F)(F)C(F)(F)C(F)(F)C(F)(F)F)C(=O)O (mixture of isomers) [Example 42, 10-[(3RS,4RS)-7-hydroxy-3-(4-hydroxyphenyl)-3-propylchroman-4-yl]-2-(4,4,5,5,6,6,7,7,7-nonafluoroheptyl)decanoic acid] | 95%
CCC[C@@]1(c2ccc(O)cc2)COc2cc(O)ccc2[C@@H]1CCCCCCCCCC(CCCC(F)(F)C(F)(F)F)C(=O)O (mixture of isomers) [Example 43, 11-[(3RS,4RS)-7-hydroxy-3-(4-hydroxyphenyl)-3-propylchroman-4-yl]-2-(4,4,5,5,5-pentafluoropentyl)undecanoic acid] | 85%
CCC[C@@]1(c2ccc(O)cc2)COc2cc(O)ccc2[C@@H]1CCCCCCCCCC(CCCCC(F)(F)C(F)(F)F)C(=O)O (mixture of isomers) [Example 44, 11-[(3RS,4RS)-7-hydroxy-3-(4-hydroxyphenyl)-3-propylchroman-4-yl]-2-(5,5,6,6,6-pentafluorohexyl)undecanoic acid] | 84%
CCC[C@@]1(c2ccc(O)cc2)COc2cc(O)ccc2[C@@H]1CCCCCCCCCC(CCC(F)(F)C(F)(F)C(F)(F)C(F)(F)F)C(=O)O (mixture of isomers) [Example 45, 11-[(3RS,4RS)-7-hydroxy-3-(4-hydroxyphenyl)-3-propylchroman-4-yl]-2-(3,3,4,4,5,5,6,6,6-nonafluorohexyl)undecanoic acid] | 85%
CCC[C@@]1(c2ccc(O)cc2)COc2cc(O)ccc2[C@@H]1CCCCCCCCCC(CCCC(F)(F)C(F)(F)C(F)(F)C(F)(F)F)C(=O)O (mixture of isomers) [Example 46, 11-[(3RS,4RS)-7-hydroxy-3-(4-hydroxyphenyl)-3-propylchroman-4-yl]-2-(4,4,5,5,6,6,7,7,7-nonafluoroheptyl)undecanoic acid] | 94%
CCCC[C@@]1(c2ccc(O)cc2)COc2cc(O)ccc2[C@@H]1CCCCCCCCC(CCCC(F)(F)C(F)(F)C(F)(F)C(F)(F)F)C(=O)O (mixture of isomers) [Example 47, 10-[(3RS,4RS)-3-butyl-7-hydroxy-3-(4-hydroxyphenyl)chroman-4-yl]-2-(4,4,5,5,6,6,7,7,7-nonafluoroheptyl)decanoic acid] | 89%
